{"source": "patent US9340590B2", "about": "(priority 2011, dated 2016)", "key": {"hNav1.5": {"molecular_target": "hNav1.5 (Homo sapiens, UniProt Q14524)", "sequence (Q14524 whole entry, looked up)": "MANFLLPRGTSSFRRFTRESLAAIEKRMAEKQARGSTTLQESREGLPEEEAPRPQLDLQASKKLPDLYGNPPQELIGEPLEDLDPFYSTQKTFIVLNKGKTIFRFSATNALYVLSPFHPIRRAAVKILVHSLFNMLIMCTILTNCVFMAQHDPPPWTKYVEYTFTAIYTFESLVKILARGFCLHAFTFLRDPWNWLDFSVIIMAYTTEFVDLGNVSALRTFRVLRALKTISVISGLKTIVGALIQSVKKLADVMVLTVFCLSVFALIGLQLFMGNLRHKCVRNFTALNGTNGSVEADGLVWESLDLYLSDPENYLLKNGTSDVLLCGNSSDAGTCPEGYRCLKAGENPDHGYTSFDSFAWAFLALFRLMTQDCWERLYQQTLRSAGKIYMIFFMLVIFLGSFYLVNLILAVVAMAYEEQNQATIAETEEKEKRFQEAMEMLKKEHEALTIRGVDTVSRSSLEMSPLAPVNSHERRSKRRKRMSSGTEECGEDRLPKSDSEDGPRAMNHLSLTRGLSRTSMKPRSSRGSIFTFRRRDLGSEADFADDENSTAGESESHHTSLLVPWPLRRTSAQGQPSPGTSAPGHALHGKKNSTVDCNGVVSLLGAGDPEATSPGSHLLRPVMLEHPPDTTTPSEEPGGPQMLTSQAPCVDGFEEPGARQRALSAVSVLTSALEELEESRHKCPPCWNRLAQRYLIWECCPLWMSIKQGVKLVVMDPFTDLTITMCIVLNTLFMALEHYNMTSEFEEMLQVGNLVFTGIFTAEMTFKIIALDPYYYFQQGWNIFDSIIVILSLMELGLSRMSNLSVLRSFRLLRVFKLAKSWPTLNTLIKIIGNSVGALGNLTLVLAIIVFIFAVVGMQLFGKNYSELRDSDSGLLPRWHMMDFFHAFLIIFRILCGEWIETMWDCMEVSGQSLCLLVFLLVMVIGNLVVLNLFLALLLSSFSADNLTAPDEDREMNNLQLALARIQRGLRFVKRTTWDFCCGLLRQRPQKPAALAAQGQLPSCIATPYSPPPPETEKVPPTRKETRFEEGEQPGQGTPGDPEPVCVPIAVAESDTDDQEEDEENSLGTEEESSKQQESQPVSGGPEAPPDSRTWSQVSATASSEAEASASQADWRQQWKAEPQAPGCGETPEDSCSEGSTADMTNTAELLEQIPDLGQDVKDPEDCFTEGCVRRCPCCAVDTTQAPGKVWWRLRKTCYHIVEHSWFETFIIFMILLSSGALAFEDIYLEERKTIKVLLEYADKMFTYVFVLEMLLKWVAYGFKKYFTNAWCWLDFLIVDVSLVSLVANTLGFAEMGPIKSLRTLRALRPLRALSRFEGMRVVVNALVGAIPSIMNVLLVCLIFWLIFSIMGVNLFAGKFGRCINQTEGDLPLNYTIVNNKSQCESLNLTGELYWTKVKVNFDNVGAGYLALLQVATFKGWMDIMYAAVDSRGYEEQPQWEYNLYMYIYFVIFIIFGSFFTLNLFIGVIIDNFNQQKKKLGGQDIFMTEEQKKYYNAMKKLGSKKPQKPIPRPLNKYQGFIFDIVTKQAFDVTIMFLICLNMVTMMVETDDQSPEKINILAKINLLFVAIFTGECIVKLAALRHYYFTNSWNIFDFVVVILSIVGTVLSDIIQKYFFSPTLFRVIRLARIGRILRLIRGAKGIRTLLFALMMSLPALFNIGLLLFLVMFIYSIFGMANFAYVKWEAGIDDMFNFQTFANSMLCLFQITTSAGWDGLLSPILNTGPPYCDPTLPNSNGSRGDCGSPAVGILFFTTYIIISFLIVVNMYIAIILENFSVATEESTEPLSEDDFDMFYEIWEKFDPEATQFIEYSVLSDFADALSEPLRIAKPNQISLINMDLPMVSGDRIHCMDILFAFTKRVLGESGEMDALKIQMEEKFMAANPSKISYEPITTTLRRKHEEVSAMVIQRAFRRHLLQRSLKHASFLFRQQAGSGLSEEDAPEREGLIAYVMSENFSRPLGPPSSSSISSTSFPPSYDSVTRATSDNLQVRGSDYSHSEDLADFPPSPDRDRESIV", "experiment": "cell-based"}, "hNav1.7": {"molecular_target": "hNav1.7 (Homo sapiens, UniProt Q15858)", "sequence (Q15858 whole entry, looked up)": "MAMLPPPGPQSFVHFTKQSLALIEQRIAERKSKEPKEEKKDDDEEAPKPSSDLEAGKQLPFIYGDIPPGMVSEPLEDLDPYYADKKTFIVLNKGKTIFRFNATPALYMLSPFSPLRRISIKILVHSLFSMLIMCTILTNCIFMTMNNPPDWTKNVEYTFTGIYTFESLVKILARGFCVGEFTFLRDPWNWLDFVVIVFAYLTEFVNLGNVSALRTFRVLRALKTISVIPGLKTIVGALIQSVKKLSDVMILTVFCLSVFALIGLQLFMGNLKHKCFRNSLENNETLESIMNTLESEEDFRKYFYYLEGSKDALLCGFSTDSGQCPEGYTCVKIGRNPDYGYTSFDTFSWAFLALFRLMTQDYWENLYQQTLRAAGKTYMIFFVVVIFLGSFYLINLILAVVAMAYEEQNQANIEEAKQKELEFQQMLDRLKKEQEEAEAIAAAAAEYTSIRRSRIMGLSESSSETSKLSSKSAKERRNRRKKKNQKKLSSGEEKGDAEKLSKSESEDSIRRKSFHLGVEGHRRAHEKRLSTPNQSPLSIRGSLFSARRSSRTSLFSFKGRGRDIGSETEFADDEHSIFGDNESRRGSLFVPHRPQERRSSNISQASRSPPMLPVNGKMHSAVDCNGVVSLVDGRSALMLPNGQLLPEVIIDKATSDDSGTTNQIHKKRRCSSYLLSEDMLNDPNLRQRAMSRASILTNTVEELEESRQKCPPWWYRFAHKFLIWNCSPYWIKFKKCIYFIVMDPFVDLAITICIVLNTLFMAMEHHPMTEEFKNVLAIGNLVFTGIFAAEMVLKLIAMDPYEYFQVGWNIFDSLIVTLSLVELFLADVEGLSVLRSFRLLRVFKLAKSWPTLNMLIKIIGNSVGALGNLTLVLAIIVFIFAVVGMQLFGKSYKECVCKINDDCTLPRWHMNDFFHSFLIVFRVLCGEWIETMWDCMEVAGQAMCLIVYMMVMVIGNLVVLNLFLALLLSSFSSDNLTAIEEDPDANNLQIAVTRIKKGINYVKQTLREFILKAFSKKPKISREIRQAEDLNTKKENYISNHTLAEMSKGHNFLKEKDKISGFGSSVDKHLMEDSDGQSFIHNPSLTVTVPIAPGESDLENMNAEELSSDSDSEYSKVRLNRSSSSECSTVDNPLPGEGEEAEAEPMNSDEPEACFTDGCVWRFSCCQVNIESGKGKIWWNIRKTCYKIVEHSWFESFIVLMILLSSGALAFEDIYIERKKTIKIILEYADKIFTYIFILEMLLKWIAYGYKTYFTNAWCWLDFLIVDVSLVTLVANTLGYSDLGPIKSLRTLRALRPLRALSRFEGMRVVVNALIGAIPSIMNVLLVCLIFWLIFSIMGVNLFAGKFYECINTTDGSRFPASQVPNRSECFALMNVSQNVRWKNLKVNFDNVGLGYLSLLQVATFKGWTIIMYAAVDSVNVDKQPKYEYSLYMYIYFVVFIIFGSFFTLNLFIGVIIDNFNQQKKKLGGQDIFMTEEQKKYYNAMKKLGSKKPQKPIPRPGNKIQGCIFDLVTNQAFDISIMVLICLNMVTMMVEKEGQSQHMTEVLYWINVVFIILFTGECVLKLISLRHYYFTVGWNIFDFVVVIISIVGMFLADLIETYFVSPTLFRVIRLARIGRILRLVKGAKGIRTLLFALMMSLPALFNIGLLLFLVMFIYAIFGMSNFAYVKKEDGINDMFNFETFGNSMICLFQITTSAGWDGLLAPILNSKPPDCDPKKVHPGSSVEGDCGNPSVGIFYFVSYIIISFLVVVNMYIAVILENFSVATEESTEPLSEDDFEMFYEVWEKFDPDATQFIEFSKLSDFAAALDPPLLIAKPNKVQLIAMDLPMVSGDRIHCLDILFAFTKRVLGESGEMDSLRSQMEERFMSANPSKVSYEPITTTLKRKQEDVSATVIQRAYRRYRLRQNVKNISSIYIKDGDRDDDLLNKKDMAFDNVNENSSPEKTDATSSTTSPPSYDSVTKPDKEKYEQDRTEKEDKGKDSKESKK", "experiment": "cell-based", "conditions": "Nav1.7 Use IC50"}}, "note": "Positions of bridges follow the written chain, without caps; N, C: chain ends. Non-standard residues stand in square brackets, D forms with d. Residues, ends and D or L forms follow the SMILES beside them. *: point of attachment. Pent4ynoyl = C#CCCC(=O)*; Abu = CC[C@H](N)C(=O)O"}
{"compound": "C#CCCC(=O)N[C@@H](CC(=O)O)C(=O)N[C@H]1CSSC[C@@H]2NC(=O)[C@@H]3CSSC[C@@H](C(=O)N[C@@H](CCCCN)C(=O)N[C@@H](Cc4ccc(O)cc4)C(=O)N[C@H](C(=O)N[C@@H](Cc4ccccc4)C(N)=O)C(C)C)NC(=O)[C@H](Cc4c[nH]c5ccccc45)NC(=O)[C@H](CCCNC(=N)N)NC(=O)[C@H](Cc4c[nH]cn4)NC(=O)[C@H]([C@@H](C)O)NC(=O)[C@H](CCCNC(=N)N)NC(=O)[C@H](CO)NC(=O)[C@H](CSSC[C@H](NC(=O)[C@H](CCCCN)NC(=O)[C@H](CCCNC(=N)N)NC(=O)[C@H](Cc4ccccc4)NC(=O)[C@H](C)NC(=O)CNC(=O)[C@H](CC(C)C)NC1=O)C(=O)N[C@@H]([C@@H](C)CC)C(=O)N1CCC[C@H]1C(=O)N[C@@H](CC(=O)O)C(=O)N[C@@H](CC)C(=O)N[C@@H](CC(=O)O)C(=O)N[C@@H](CCCCN)C(=O)N3)NC(=O)[C@H](C(C)C)NC(=O)[C@H](CC(C)C)NC(=O)[C@H](CC(N)=O)NC(=O)[C@@H]1CCCN1C(=O)[C@H](CCCNC(=N)N)NC2=O", "note": "(Pent4ynoyl-DCLGAFRKCIPD[Abu]DKCCRPNLVCSRTHRWCKYVF-NH2; disulfide 2-17, 9-23, 16-30)", "values": [{"measurement": "IC50", "setting": "hNav1.5", "value": "> 10", "unit": "µM"}, {"measurement": "IC50", "setting": "hNav1.7", "value": 0.004, "unit": "µM"}]}
{"compound": "C#CCCC(=O)N[C@@H](CC(=O)O)C(=O)N[C@H]1CSSC[C@@H]2NC(=O)[C@@H]3CSSC[C@@H](C(=O)N[C@@H](CCCCN)C(=O)N[C@@H](Cc4ccc(O)cc4)C(=O)N[C@H](C(=O)N[C@@H](Cc4ccccc4)C(N)=O)C(C)C)NC(=O)[C@H](Cc4c[nH]c5ccccc45)NC(=O)[C@H](CCCNC(=N)N)NC(=O)[C@H](Cc4c[nH]cn4)NC(=O)[C@H]([C@@H](C)O)NC(=O)[C@H](CCCNC(=N)N)NC(=O)[C@H](CO)NC(=O)[C@H](CSSC[C@H](NC(=O)[C@H](CCCCN)NC(=O)[C@H](CCCNC(=N)N)NC(=O)[C@H](CC(C)C)NC(=O)[C@H](CC)NC(=O)CNC(=O)[C@H](CC(C)C)NC1=O)C(=O)N[C@@H]([C@@H](C)CC)C(=O)N1CCC[C@H]1C(=O)N[C@@H](CC(=O)O)C(=O)N[C@@H](CC)C(=O)N[C@@H](CC(=O)O)C(=O)N[C@@H](CCCCN)C(=O)N3)NC(=O)[C@H](C(C)C)NC(=O)[C@H](CC(C)C)NC(=O)[C@H](CC(N)=O)NC(=O)[C@@H]1CCCN1C(=O)[C@H](CCCNC(=N)N)NC2=O", "note": "[4-Pen-[2-Abu5,13;Leu6;Arg28]GpTx-1(1-34)] (Pent4ynoyl-DCLG[Abu]LRKCIPD[Abu]DKCCRPNLVCSRTHRWCKYVF-NH2; disulfide 2-17, 9-23, 16-30)", "values": [{"measurement": "IC50", "setting": "hNav1.5", "value": "> 10", "unit": "µM"}, {"measurement": "IC50", "setting": "hNav1.7", "value": 0.003, "unit": "µM"}]}
{"compound": "CC[C@H](C)[C@@H]1NC(=O)[C@@H]2CSSC[C@@H]3NC(=O)[C@H](C(C)C)NC(=O)[C@H](CC(C)C)NC(=O)[C@H](CC(N)=O)NC(=O)[C@@H]4CCCN4C(=O)[C@H](CCCNC(=N)N)NC(=O)[C@H](CSSC[C@H](NC(=O)[C@@H](N)CC(=O)O)C(=O)N[C@@H](CC(C)C)C(=O)NCC(=O)N[C@@H](C)C(=O)N[C@@H](Cc4ccccc4)C(=O)N[C@@H](CCCNC(=N)N)C(=O)N[C@@H](CCCCN)C(=O)N2)NC(=O)[C@H](CSSC[C@@H](C(=O)N[C@@H](CCCCN)C(=O)N[C@@H](Cc2ccc(O)cc2)C(=O)N[C@H](C(=O)N[C@@H](Cc2ccccc2)C(=O)N[C@@H](Cc2ccccc2)C(=O)O)C(C)C)NC(=O)[C@H](Cc2c[nH]c4ccccc24)NC(=O)[C@H](CCCNC(=N)N)NC(=O)[C@H](Cc2c[nH]cn2)NC(=O)[C@H]([C@@H](C)O)NC(=O)[C@H](CCCNC(=N)N)NC(=O)[C@H](CO)NC3=O)NC(=O)[C@H](CCCCN)NC(=O)[C@H](CC(=O)O)NC(=O)[C@H](CC(N)=O)NC(=O)[C@H](CC(=O)O)NC(=O)[C@@H]2CCCN2C1=O", "note": "[Ala5;Phe6;Arg28]GpTx-1(1-34)-Phe-] (H-DCLGAFRKCIPDNDKCCRPNLVCSRTHRWCKYVFF-OH; disulfide 2-17, 9-23, 16-30)", "values": [{"measurement": "IC50", "setting": "hNav1.5", "value": "> 10", "unit": "µM"}, {"measurement": "IC50", "setting": "hNav1.7", "value": 0.116, "unit": "µM"}]}
